According to PubChem BioAssay (NCI):
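Results reflect a 48-hour exposure of cells in 96-well plates to compound at five concentrations. GI50 is the concentration that inhibits growth by half. At the TGI there is no net growth.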

Assays:
Assay in all cases: NCI anticancer screen, dose series, 48 h
[1] = tested on: 786-0 renal
[2] = tested on: A498 renal
[3] = tested on: A549 NSCLC
[4] = tested on: ACHN renal
[5] = tested on: BT-549 breast
[6] = tested on: CAKI-1 renal
[7] = tested on: CCRF-CEM leukemia
[8] = tested on: COLO 205 colon
[9] = tested on: DU-145 prostate
[10] = tested on: HCC-2998 colon
[11] = tested on: HCT-116 colon
[12] = tested on: HCT-15 colon
[13] = tested on: HL-60(TB) leukemia
[14] = tested on: HOP-62 NSCLC
[15] = tested on: HOP-92 NSCLC
[16] = tested on: HS 578T breast
[17] = tested on: HT29 colon
[18] = tested on: IGROV1 ovarian
[19] = tested on: K-562 leukemia
[20] = tested on: KM12 colon
[21] = tested on: LOX IMVI melanoma
[22] = tested on: M14 melanoma
[23] = tested on: MALME-3M melanoma
[24] = tested on: MCF7 breast
[25] = tested on: MDA-MB-231 breast
[26] = tested on: MDA-MB-435
[27] = tested on: MOLT-4 leukemia
[28] = tested on: NCI-H226 lung
[29] = tested on: NCI-H23 lung
[30] = tested on: NCI-H460 lung
[31] = tested on: NCI-H522 lung
[32] = tested on: NCI/ADR-RES ovarian
[33] = tested on: OVCAR-3 ovarian
[34] = tested on: OVCAR-4 ovarian
[35] = tested on: OVCAR-5 ovarian
[36] = tested on: OVCAR-8 ovarian
[37] = tested on: PC-3 prostate
[38] = tested on: RPMI-8226 leukemia
[39] = tested on: RXF 393 renal
[40] = tested on: SF-268 CNS
[41] = tested on: SF-295 CNS
[42] = tested on: SF-539 CNS
[43] = tested on: SK-MEL-2 melanoma
[44] = tested on: SK-MEL-28 melanoma
[45] = tested on: SK-MEL-5 melanoma
[46] = tested on: SK-OV-3 ovarian
[47] = tested on: SN12C renal
[48] = tested on: SNB-19 CNS
[49] = tested on: SNB-75 CNS
[50] = tested on: SR leukemia
[51] = tested on: SW-620 colon
[52] = tested on: T-47D breast
[53] = tested on: TK-10 renal
[54] = tested on: U251 CNS
[55] = tested on: UACC-257 melanoma
[56] = tested on: UACC-62 melanoma
[57] = tested on: UO-31 renal
[58] = tested on: EKVX NSCLC

## Cc1cc(C(=O)N[C@@H](CCC(=O)O)C(=O)O)sc1CC[C@@H]1CNc2nc(N)[nH]c(=O)c2C1
[1]
  GI50: < 0.01 µM
  TGI: > 100 µM
[2]
  GI50: 0.0598 µM
  TGI: > 100 µM
[3]
  GI50: 0.0436 µM
  TGI: > 100 µM
[4]
  GI50: < 0.01 µM
  TGI: > 100 µM
[5]
  GI50: 0.0883 µM
  TGI: > 100 µM
[6]
  GI50: < 0.01 µM
  TGI: > 100 µM
[7]
  GI50: 0.0316 µM
  TGI: > 100 µM
[8]
  GI50: 0.0309 µM
  TGI: > 100 µM
[9]
  GI50: < 0.0104 µM
  TGI: > 100 µM
[10]
  GI50: 0.0751 µM
  TGI: > 100 µM
[11]
  GI50: < 0.0127 µM
  TGI: > 100 µM
[12]
  GI50: 0.042 µM
  TGI: > 100 µM
[13]
  GI50: < 0.0124 µM
  TGI: > 100 µM
[14]
  GI50: 0.0496 µM
  TGI: > 100 µM
[15]
  GI50: 0.0592 µM
  TGI: > 100 µM
[16]
  GI50: 0.114 µM
  TGI: > 100 µM
[17]
  GI50: < 0.0178 µM
  TGI: > 100 µM
[18]
  GI50: 0.0463 µM
  TGI: > 100 µM
[19]
  GI50: < 0.01 µM
  TGI: > 100 µM
[20]
  GI50: 0.046 µM
  TGI: > 100 µM
[21]
  GI50: 0.0268 µM
  TGI: > 100 µM
[22]
  GI50: < 0.0124 µM
  TGI: > 100 µM
[23]
  GI50: 0.0398 µM
  TGI: > 100 µM
[24]
  GI50: 0.0102 µM
  TGI: > 100 µM
[25]
  GI50: 5.56 µM
  TGI: > 100 µM
[26]
  GI50: 0.0296 µM
  TGI: > 100 µM
[27]
  GI50: 0.0292 µM
  TGI: > 100 µM
[28]
  GI50: < 0.0245 µM
  TGI: > 100 µM
[29]
  GI50: 0.0952 µM
  TGI: > 100 µM
[30]
  GI50: < 0.0119 µM
  TGI: > 100 µM
[31]
  GI50: 0.0322 µM
  TGI: > 100 µM
[32]
  GI50: 0.0481 µM
  TGI: > 100 µM
[33]
  GI50: 0.048 µM
  TGI: > 100 µM
[34]
  GI50: 23.3 µM
  TGI: > 100 µM
[35]
  GI50: 0.026 µM
  TGI: > 100 µM
[36]
  GI50: < 0.0172 µM
  TGI: > 90.6 µM
[37]
  GI50: < 0.01 µM
  TGI: > 100 µM
[38]
  GI50: 0.0648 µM
  TGI: > 100 µM
[39]
  GI50: < 0.0153 µM
  TGI: > 100 µM
[40]
  GI50: 0.0372 µM
  TGI: > 100 µM
[41]
  GI50: 0.0496 µM
  TGI: > 100 µM
[42]
  GI50: < 0.01 µM
  TGI: > 100 µM
[43]
  GI50: 7.78 µM
  TGI: > 100 µM
[44]
  GI50: 0.0377 µM
  TGI: > 100 µM
[45]
  GI50: 0.0679 µM
  TGI: > 100 µM
[46]
  GI50: < 0.0205 µM
  TGI: > 100 µM
[47]
  GI50: 0.0253 µM
  TGI: > 100 µM
[48]
  GI50: 0.0853 µM
  TGI: > 100 µM
[49]
  GI50: 0.252 µM
  TGI: > 100 µM
[50]
  GI50: < 0.01 µM
  TGI: > 100 µM
[51]
  GI50: 0.0101 µM
  TGI: > 100 µM
[52]
  GI50: 0.0825 µM
  TGI: > 100 µM
[53]
  GI50: < 0.0154 µM
  TGI: > 100 µM
[54]
  GI50: 0.0274 µM
  TGI: > 100 µM
[55]
  GI50: 0.0559 µM
  TGI: > 100 µM
[56]
  GI50: 0.0378 µM
  TGI: > 100 µM
[57]
  GI50: < 0.01 µM
  TGI: > 100 µM

## CC(C)(C)OC(=O)N1CC(Cn2cc(C(F)(F)F)c3c(Cl)ncnc32)C1
[1]
  GI50: 16.8 µM
  TGI: 36.7 µM
[2]
  GI50: 4.81 µM
  TGI: 16.8 µM
[3]
  GI50: 14 µM
  TGI: 28.2 µM
[4]
  GI50: 15 µM
  TGI: 31.9 µM
[5]
  GI50: 1.62 µM
  TGI: 3.06 µM
[7]
  GI50: 3.05 µM
  TGI: 9.19 µM
[8]
  GI50: 12.6 µM
  TGI: 28.5 µM
[9]
  GI50: 1.79 µM
  TGI: 3.18 µM
[58]
  GI50: 2.63 µM
  TGI: 10.2 µM
[10]
  GI50: 1.79 µM
  TGI: 3.34 µM
[11]
  GI50: 1.86 µM
  TGI: 3.35 µM
[12]
  GI50: 2 µM
  TGI: 4.4 µM
[13]
  GI50: 2.37 µM
  TGI: 5.82 µM
[14]
  GI50: 1.95 µM
  TGI: 3.93 µM
[15]
  GI50: 4.5 µM
  TGI: 21.4 µM
[16]
  GI50: 2.36 µM
  TGI: 6.55 µM
[17]
  GI50: 2.6 µM
  TGI: 6.67 µM
[18]
  GI50: 1.86 µM
  TGI: 3.92 µM
[19]
  GI50: 2.81 µM
  TGI: > 100 µM
[20]
  GI50: 2.34 µM
  TGI: 5.35 µM
[21]
  GI50: 1.75 µM
  TGI: 3.27 µM
[22]
  GI50: 1.72 µM
  TGI: 3.38 µM
[23]
  GI50: 12.4 µM
  TGI: 26.6 µM
[24]
  GI50: 2.13 µM
  TGI: 6.15 µM
[25]
  GI50: 6.92 µM
  TGI: 23.4 µM
[26]
  GI50: 1.72 µM
  TGI: 3.14 µM
[27]
  GI50: 2.39 µM
  TGI: 6.28 µM
[28]
  GI50: 18.9 µM
  TGI: 41.9 µM
[29]
  GI50: 1.84 µM
  TGI: 3.58 µM
[30]
  GI50: 2.06 µM
  TGI: 3.99 µM
[31]
  GI50: 13.3 µM
  TGI: 28.4 µM
[32]
  GI50: 13.9 µM
  TGI: 65.4 µM
[33]
  GI50: 1.92 µM
  TGI: 3.6 µM
[34]
  GI50: 10.2 µM
  TGI: 23.2 µM
[35]
  GI50: 20.5 µM
  TGI: 57.5 µM
[36]
  GI50: 1.84 µM
  TGI: 3.58 µM
[37]
  GI50: 1.76 µM
  TGI: 3.5 µM
[38]
  GI50: 2.67 µM
  TGI: 6.33 µM
[39]
  GI50: 1.43 µM
  TGI: 3.59 µM
[40]
  GI50: 1.75 µM
  TGI: 3.4 µM
[41]
  GI50: 1.99 µM
  TGI: 4.75 µM
[42]
  GI50: 11.3 µM
  TGI: 24.6 µM
[43]
  GI50: 1.84 µM
  TGI: 3.47 µM
[44]
  GI50: 1.91 µM
  TGI: 3.53 µM
[45]
  GI50: 1.79 µM
  TGI: 3.21 µM
[46]
  GI50: 2.91 µM
  TGI: 8.21 µM
[47]
  GI50: 2.32 µM
  TGI: 6.12 µM
[48]
  GI50: 1.8 µM
  TGI: 3.33 µM
[49]
  GI50: 4.99 µM
  TGI: 18.1 µM
[50]
  GI50: 0.726 µM
  TGI: > 100 µM
[51]
  GI50: 3.3 µM
  TGI: 10.6 µM
[52]
  GI50: 5.51 µM
  TGI: 27.1 µM
[53]
  GI50: 24.6 µM
  TGI: 62.5 µM
[54]
  GI50: 1.79 µM
  TGI: 3.26 µM
[55]
  GI50: 2.2 µM
  TGI: 5.43 µM
[56]
  GI50: 1.85 µM
  TGI: 3.65 µM
[57]
  GI50: 2.71 µM
  TGI: 10.8 µM
